{"source": "patent US4560557A", "about": "“Silicon and sulfur steroids as irreversible inhibitors of hormone biosynthesis” (University Patents, Inc., priority 1983, dated 1985)", "key": {"[1]": {"test_system": "human adrenal cells", "assay": "ACTH-stimulated cortisol production by human adrenal cell suspensions", "type": "cell-based", "conditions": "for time dependence of inhibition of cortisol production: FIG. 4, FIG. 5; for inhibition of ACTH-stimulated cortisol production: human cells", "from_the_text": "(§1) Additionally data showing that the silicon and sulfur-containing compounds of the present invention are effective at halting steroid hormone biosynthesis when given at low concentrations to suspensions of human and rat adrenal cells are depicted in the following figures and table."}, "[2]": {"test_system": "rat adrenal cells", "assay": "Time and concentration dependence of effects on ACTH-stimulated corticosterone production by rat adrenal cells", "type": "cell-based", "conditions": "for time dependence of inhibition of corticosterone production: FIG. 2, FIG. 3; for inhibition of ACTH-stimulated corticosterone production: rat cells", "procedure": "as §1\nSteroid was added at […]. […] At 10 μM 20 OH TMS steroid, corticosterone production is obliterated by 40 min.\nSteroid was added at t=-10 min."}, "[3]": {"test_system": "cytochrome P-450 cholesterol side chain cleavage enzyme (P-450scc)", "assay": "P-450scc inactivation, preincubation study (pregnenolone formation from [3H]cholesterol)", "type": "biochemical", "conditions": "NADPH and/or O2, FIG. 1: P450 1.35 μM, steroid 20 μM", "procedure": "As mentioned previously, the compounds of the present invention are potent inhibitors of the conversion of cholesterol to pregnenolone.\nThe final turnover mixture contained 2.5 μM adrenodoxin, 150 nM adrenodoxin reductase, 50 mM K^+ MOPS (pH 7.2), 10 mM MgCl2, 0.2% Tween 20, 1 unit/mL catalase, a NADPH-generating system of 16 μM NADPH, 3 mM G6P, and 1 unit/mL […]. For a typical preincubation experiment, inhibitor was added as an ethanol solution (2-10 mM) into the P-450 turnover mixture at 37° C. and the reactions were started by addition of NADPH stock solution. After, 0, 5, 10, 15, 30, or 45 min. of incubation, an aliquot of this mixture (200μ) was introduced into 1.8 ml of the turnover mixture containing [1, 2-^3 H] cholesterol (100 μM 10,000 dpm/nmol). After 10 min., the reaction was terminated by acidification, and [4-^- C] prengenolone were added as an internal standard. The resulting mixture was extracted using ethyl acetate and evaporated to dryness. The product pregnenolone was separated on silica gel TLC plates (Baker-flex) using 1:1 ethyl acetate-hexane as the solvent. The product formation was determined from the ratio of ^3 H to ^14 C in the recovered pregnenolone.\nThe P450 concentration was 1.35 μM and the steroid was 20 μM=NADPH; 0=no inhibitor+NADPH; 0=NADPH."}, "[4]": {"test_system": "rat adrenocortical cells", "assay": "Effects of cholesterol analogues on adrenal cell corticosterone production (with or without ACTH)", "type": "cell-based", "from_the_text": "When rat adrenocortical cells were stimulated with ACTH in the presence of the P-450 scc inhibitors of the present invention, and the production of cortiscoterone measured, less corticosterone was produced in the presence of the compounds of the present invention, then when those compounds were absent.\nCorticosterone production rates by non-stimulated rat adrenal cell suspensions are approximately one-fifth those of ACTH stimulated rates. […] This property, combined with P-450 scc inhibitors with and without polar side chains was used to determine how ACTH stimulation results in increased conversion of endogenous cholesterol to corticosterone.\nCells (30,000/ml) were preincubated with steroid for 10 minutes.\nMaximally stimulating levels of ACTH were then added and the\nincubation continued for another 60 minutes. The incubations were\nthen quenched, and samples assayed for\ncorticosterone fluorometrically."}, "[5]": {"conditions": "FIG. 5, 10 μM for the 20(S) compound"}, "[6]": {"conditions": "ACTH + steroid 2 ug/ml, ACTH only = 100, 10 min preincubation, 60 min incubation"}}, "data": [{"compound": "22 (trimethylisilyl pregnenol)", "values": [{"measurement": "inhibition of cortisol production", "setting": "[1]; FIG. 4", "result": "little inhibitory effect on cortisol production"}]}, {"compound": "C[C@]12CC[C@H]3[C@@H](CC=C4C[C@@H](O)CC[C@@]43C)[C@@H]1CC[C@@H]2[C@@](C)(O)CC[Si](C)(C)C", "note": "[20 OH TMS, 20-(2-Trimethylsilyl-ethyl) pregnen-3, 20a-diol]", "values": [{"measurement": "corticosterone production", "setting": "[2]; 10 μM steroid, by 40 min (FIG. 2)", "result": "obliterated"}, {"measurement": "time dependence of inhibition of corticosterone production", "setting": "[2]", "result": "strongly time dependent"}, {"measurement": "inhibition of ACTH-stimulated corticosterone production", "setting": "[2]", "result": "inhibits"}, {"measurement": "inhibition of cortisol production", "setting": "[1]; FIG. 4", "result": "strongly inhibits cortisol production"}, {"measurement": "time dependence of inhibition of cortisol production", "setting": "[1]", "result": "probably in a time dependent manner"}, {"measurement": "inhibition of ACTH-stimulated cortisol production", "setting": "[1]", "result": "inhibits"}, {"measurement": "loss of enzyme activity / P-450 scc inhibition", "setting": "[3]", "result": "P-450 scc inhibition"}, {"measurement": "loss of enzyme activity / P-450 scc inhibition", "setting": "[3]; listed as trimethyl silyl-containing compound", "result": "time-dependent loss of enzyme activity"}]}, {"compound": "CC(C)CCS[C@H](C)[C@H]1CC[C@H]2[C@@H]3CC=C4C[C@@H](O)CC[C@]4(C)[C@H]3CC[C@]12C", "note": "[20(R)22 thiacholesterol]", "values": [{"measurement": "time dependence of inhibition of cortisol production", "setting": "[1]", "result": "not time dependent"}, {"measurement": "inhibition of cortisol production", "setting": "[1]; [5]", "result": "inhibited slightly"}, {"measurement": "CORTICOSTERONE PRODUCED (%)", "setting": "[4]; [6]", "result": 117.9, "unit": "%"}]}, {"compound": "CC(C)CCS[C@@H](C)[C@H]1CC[C@H]2[C@@H]3CC=C4C[C@@H](O)CC[C@]4(C)[C@H]3CC[C@]12C", "note": "[20(S)22 thiacholesterol]", "values": [{"measurement": "time dependence of inhibition of corticosterone production", "setting": "[2]", "result": "only slightly time dependent"}, {"measurement": "concentration dependence of inhibition of corticosterone production", "setting": "[2]; FIG. 3", "result": "strongly concentration dependent"}, {"measurement": "inhibition of ACTH-stimulated corticosterone production", "setting": "[2]", "result": "inhibits"}, {"measurement": "time dependence of inhibition of cortisol production", "setting": "[1]", "result": "probably in a time dependent manner"}, {"measurement": "inhibition of cortisol production", "setting": "[1]; [5]", "result": "strongly inhibited"}, {"measurement": "inhibition of ACTH-stimulated cortisol production", "setting": "[1]", "result": "inhibits"}, {"measurement": "CORTICOSTERONE PRODUCED (%)", "setting": "[4]; 25 hydroxycholesterol 5 ug/ml + 20(S)22 thialcholesterol 5 ug/ml, without ACTH, ACTH only = 100, 60 min", "result": 15.5, "unit": "%"}, {"measurement": "CORTICOSTERONE PRODUCED (%)", "setting": "[4]; [6]", "result": 54.1, "unit": "%"}, {"measurement": "corticosterone production (in words)", "setting": "[4]; ACTH-stimulated cells", "result": "decreased corticosterone production"}]}, {"compound": "C[C@H](CCCC(C)(C)O)[C@H]1CC[C@H]2[C@@H]3CC=C4C[C@@H](O)CC[C@]4(C)[C@H]3CC[C@]12C", "note": "[25 hydroxycholesterol, reference compound]", "values": [{"measurement": "CORTICOSTERONE PRODUCED (%)", "setting": "[4]; [6]", "result": 117.0, "unit": "%"}, {"measurement": "activity at 2 µg/mL", "setting": "[4]; Rattus norvegicus, 1 h, steroid 2 ug/ml without ACTH, ACTH only = 100, read-out: CORTICOSTERONE PRODUCED (%)", "result": 21.9, "unit": "%"}, {"measurement": "activity at 5 µg/mL", "setting": "[4]; Rattus norvegicus, 1 h, steroid 5 ug/ml without ACTH, ACTH only = 100, read-out: CORTICOSTERONE PRODUCED (%)", "result": 30.4, "unit": "%"}, {"measurement": "corticosterone production rate relative to ACTH stimulated cells", "setting": "[4]; non-stimulated cells", "result": "as much as one-half those of ACTH stimulated cells"}]}]}
